How the values were obtained:
[1] = pKa (titrated); assay type: physicochemical
Method: As expected, solubility improves with ionization. However, even when essentially all of the compound carries a +1 charge, the aqueous solubility remains poor, e.g., at pH 4 the solubility is <2 μg/mL. Similarly, at pH 2 the average charge will be +2 but, the solubility for this strongly charged compound is only 1 mg/mL. Based on the pKa values, under still more acidic conditions this compound will have an average charge of +3 and the solubility might be expected to increase further. However, no further increase in solubility has been achieved, i.e., at pH 1.0 (0.1 NHCL) the solubility of this compound decreases to <1 mg/mL. This type of decrease in solubility is consistent with the formation of insoluble chloride salts.

[2] = Aqueous solubility (buffers, pH dependence); assay type: physicochemical
Description: As expected, solubility improves with ionization. […] This type of decrease in solubility is consistent with the formation of insoluble chloride salts. […] However, as shown in the Table 1 below, the A2a receptor antagonist compound described above has both low aqueous and non-aqueous solubility.

[3] = Non-aqueous solubility (ethanol, propylene glycol, soybean oil); assay type: physicochemical
Description: However, as shown in the Table 1 below, the A2a receptor antagonist compound described above has both low aqueous and non-aqueous solubility.

[4] = Formula 1 concentration in acidified propylene glycol stock solutions and after dilution with deionized water; assay type: physicochemical
Description: [table] […] In this way, the concentration of propylene glycol was decreased 10 fold from the initial concentration of 86% to a final concentration of 8.6%. […] Similarly, Formula 1 solubility should not be affected by the 2-10× dilution of sodium docusate as this surfactant will still be present at levels above its critical micelle concentration (CMC).

[5] = Extraction of Formula 1 from stock solutions into soybean oil; assay type: physicochemical; settings: excess Formula 1
[6] = Formula I:docusate complex dissolved in propylene glycol (Example 1); assay type: physicochemical
Method: A non-aqueous embodiment of the formulations of the present invention was prepared as set forth by the following procedure. A first solution was prepared by adding 100 mg of the compound of Formula I above to 500 mL of 0.01 NHCL. Next, a second Solution was prepared by adding 20 grams of sodium docusate to 500 mL of 0.01 NHCL. These two solutions were mixed and a complex of the compound of Formula I and docusate sodium was precipitated from solution. The precipitate was thereafter separated by centrifuging the mixture, decanting the supernatant and then drying the residue complex.
The dried residue was then dissolved in a small quantity of propylene glycol and the concentration of the compound of Formula I in this solution was determined to be 2.5 mg/mL.

[7] = Precipitation from acidic aqueous solution in presence of sodium docusate; assay type: physicochemical; settings: pH 2.0, 0.1 mg/mL aqueous solution
Description: For aqueous formulations of the present invention, surfactants such sodium docusate are typically added to improve aqueous solubility. However, sodium docusate actually decreases the aqueous solubility of 7-[2-[4-[4-(methoxyethoxy)phenyl]1-piperazinyl]ethyl]-2-(2-furanyl)-7H-pyrazolo[4,3-e]triazolo[1,5-c]pyrimidin-5-amine under acidic conditions. […] More specifically, by “ion-pair” it is meant to mean the non-covalent bonding of two oppositely charged molecules.

[8] = molecular target: A2a receptor (Homo sapiens, UniProt P29274); settings: cited from earlier work
A2a receptor, sequence (P29274 whole entry): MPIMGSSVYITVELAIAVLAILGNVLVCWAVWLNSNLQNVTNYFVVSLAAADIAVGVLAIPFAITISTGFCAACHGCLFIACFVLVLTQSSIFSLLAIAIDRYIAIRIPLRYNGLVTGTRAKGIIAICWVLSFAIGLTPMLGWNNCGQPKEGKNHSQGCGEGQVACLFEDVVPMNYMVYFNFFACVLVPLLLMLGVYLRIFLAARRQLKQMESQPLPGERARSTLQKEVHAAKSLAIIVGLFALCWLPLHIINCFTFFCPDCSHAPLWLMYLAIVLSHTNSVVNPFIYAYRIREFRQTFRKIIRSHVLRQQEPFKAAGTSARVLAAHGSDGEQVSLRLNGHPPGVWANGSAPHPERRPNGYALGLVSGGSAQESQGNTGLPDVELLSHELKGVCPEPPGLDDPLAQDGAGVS

SMILES: COCCOc1ccc(N2CCN(CCn3ncc4c3nc(N)n3nc(-c5ccco5)nc43)CC2)cc1 [Formula 1, 7-[2-[4-[4-(methoxyethoxy)phenyl]1-piperazinyl]ethyl]-2-(2-furanyl)-7H-pyrazolo[4,3-e]triazolo[1,5-c]pyrimidin-5-amine]
- pKa [1]: 6.87
- solubility ([2]; 0.1 N HCl, pH 1, simulated gastric fluid, pH 1.0 (0.1 NHCL)): < 1000 µg/mL
- Aqueous Solubility ([2]; Buffer pH 4): 1.7 µg/mL
- solubility ([2]; aqueous buffer, pH 3, aqueous buffer, Buffer pH 3): 105 µg/mL
- solubility ([2]; aqueous buffer, pH 4, aqueous buffer, Buffer pH 4): < 2 µg/mL
- solubility ([2]; aqueous buffer, pH 7.4, aqueous buffer, Buffer pH 7.4): < 0.005 µg/mL
- solubility ([2]; aqueous medium, pH 2, simulated gastric fluid, pH 2): 1000 µg/mL
- Solubility in aqueous media ([2]; neutral pH): virtually insoluble
- solubility ([3]; ethanol, organic solvent or mixture): 100 µg/mL
- solubility ([3]; propylene glycol, organic solvent or mixture, Propylene Glycol (neutral compound)): ~30 µg/mL
- solubility ([3]; soybean oil, oil or lipid): < 70 µg/mL
- Formula 1 concentration, 86% PG/(Stock) ([4]; Stock solution 1: acidified propylene glycol (86% v/v, citric acid/HCl to pH 3.4), undiluted): 9.8 mg/mL
- Formula 1 concentration, 43% PG/DF2 ([4]; Stock solution 1: acidified propylene glycol, diluted with deionized water DF2): 4.6 mg/mL
- Formula 1 concentration, 17% PG/DF4 ([4]; Stock solution 1: acidified propylene glycol, diluted with deionized water DF4): 1.9 mg/mL
- Formula 1 concentration, 8.6% PG/DF10 ([4]; Stock solution 1: acidified propylene glycol, diluted with deionized water DF10): 0.97 mg/mL
- Formula 1 concentration, 86% PG/(Stock) ([4]; Stock solution 2: acidified propylene glycol + 36 mg/mL Tween 80, undiluted): 8.7 mg/mL
- Formula 1 concentration, 43% PG/DF2 ([4]; Stock solution 2: acidified propylene glycol + Tween 80, diluted with deionized water DF2): 4.0 mg/mL
- Formula 1 concentration, 17% PG/DF4 ([4]; Stock solution 2: acidified propylene glycol + Tween 80, diluted with deionized water DF4): 1.8 mg/mL
- Formula 1 concentration, 8.6% PG/DF10 ([4]; Stock solution 2: acidified propylene glycol + Tween 80, diluted with deionized water DF10): 0.78 mg/mL
- Formula 1 concentration, 86% PG/(Stock) ([4]; Stock solution 3: acidified propylene glycol + 61 mg/mL docusate sodium, undiluted): 9.2 mg/mL
- Formula 1 concentration, 43% PG/DF2 ([4]; Stock solution 3: acidified propylene glycol + docusate sodium, diluted with deionized water DF2): 0.14 mg/mL
- Formula 1 concentration, 17% PG/DF4 ([4]; Stock solution 3: acidified propylene glycol + docusate sodium, diluted with deionized water DF4): 0.037 mg/mL
- Formula 1 concentration, 8.6% PG/DF10 ([4]; Stock solution 3: acidified propylene glycol + docusate sodium, diluted with deionized water DF10): 0.011 mg/mL
- Maximum concentration relative to solubility in propylene glycol ([4]; acidified propylene glycol without docusate): 300 times
- Concentration relative to solubility in propylene glycol ([4]; direct addition to acidified propylene glycol and docusate): greater than 300 times
- Concentration in acidified propylene glycol solution ([4]; propylene glycol solution acidified to ionize the active compound): more than 9 mg/mL
- Soybean Oil Amt. Extracted ([5]; extracted from stock solution 1 (acidified propylene glycol)): 0.006 mg/mL
- Soybean Oil Amt. Extracted ([5]; extracted from stock solution 2 (acidified propylene glycol + Tween 80)): 0.007 mg/mL
- Soybean Oil Amt. Extracted ([5]; extracted from stock solution 3 (acidified propylene glycol + docusate sodium)): 0.28 mg/mL
- Solubility relative to compound alone in propylene glycol ([6]; Formula I:docusate complex in propylene glycol): more than 80 fold
- Concentration of the compound of Formula I in propylene glycol solution ([6]; dried Formula I:docusate sodium complex dissolved in propylene glycol): 2500 µg/mL
- Concentration relative to active compound and propylene glycol only ([6]; formulated with docusate sodium in acidified propylene glycol): 80 times
- Behaviour of solution in presence of sodium docusate [7]: precipitate out of solution
- Potency as an A2a receptor antagonist [8]: considerable potency
